This is an account of results in patent US12492188B2, “1H-benzo[D]imidazole derivatives as TLR9 inhibitors for the treatment of fibrosis” (BRISTOL-MYERS SQUIBB COMPANY, priority 2020, dated 2025).

Common to all, as to type: cell-based
The target of assay [1] is T1, human TLR9 (Homo sapiens, UniProt Q9NR96).
T1 construct: host or cells: HEK-Blue cells (HEK293-derived reporter line)
T1 sequence (Q9NR96 26-1032): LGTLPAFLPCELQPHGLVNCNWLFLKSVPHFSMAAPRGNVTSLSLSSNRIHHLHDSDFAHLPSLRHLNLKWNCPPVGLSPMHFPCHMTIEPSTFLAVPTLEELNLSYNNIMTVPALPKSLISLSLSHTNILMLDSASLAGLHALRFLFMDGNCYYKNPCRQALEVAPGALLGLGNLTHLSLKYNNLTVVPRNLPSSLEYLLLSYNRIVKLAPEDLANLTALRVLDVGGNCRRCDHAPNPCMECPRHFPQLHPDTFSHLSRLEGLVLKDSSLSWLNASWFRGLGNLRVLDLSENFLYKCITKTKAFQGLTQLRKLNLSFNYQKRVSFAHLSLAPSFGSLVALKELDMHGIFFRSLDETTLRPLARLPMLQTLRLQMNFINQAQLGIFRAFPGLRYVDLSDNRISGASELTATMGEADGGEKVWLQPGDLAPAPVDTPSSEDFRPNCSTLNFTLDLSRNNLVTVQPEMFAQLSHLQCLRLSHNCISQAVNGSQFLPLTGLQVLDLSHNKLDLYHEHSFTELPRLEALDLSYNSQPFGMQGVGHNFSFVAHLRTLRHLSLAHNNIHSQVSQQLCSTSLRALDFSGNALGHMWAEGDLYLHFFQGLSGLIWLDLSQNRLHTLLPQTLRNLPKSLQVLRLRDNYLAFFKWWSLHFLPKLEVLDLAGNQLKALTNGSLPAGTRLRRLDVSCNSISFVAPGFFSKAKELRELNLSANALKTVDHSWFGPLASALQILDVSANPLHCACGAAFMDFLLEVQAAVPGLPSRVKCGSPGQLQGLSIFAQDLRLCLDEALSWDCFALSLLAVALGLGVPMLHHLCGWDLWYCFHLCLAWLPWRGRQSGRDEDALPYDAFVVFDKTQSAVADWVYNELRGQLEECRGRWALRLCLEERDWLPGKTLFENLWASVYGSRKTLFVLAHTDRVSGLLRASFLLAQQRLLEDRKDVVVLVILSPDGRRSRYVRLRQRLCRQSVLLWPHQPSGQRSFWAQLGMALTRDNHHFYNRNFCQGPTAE
In words: TLR9 inhibition reporter assay (HEK-Blue cells, secreted embryonic alkaline phosphatase reporter). The method in brief:
(§1)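 HEK-Blue cells expressing human TLR7, TLR8 or TLR9 with an NF-κB/AP-1-driven SEAP reporter were pretreated with compound (0.05 nM–50 μM final) for 30 min at room temperature. Agonists were gardiquimod 7.5 μM for TLR7, R848 15.9 μM for TLR8 and ODN2006 5 nM for TLR9. SEAP was read after 22 h at 37 °C, and inhibition was calculated relative to agonist-plus-DMSO and known-inhibitor controls.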
On the technique in general: In a reporter assay the amount or activity of a reporter protein is the signal.

Assay [2] deals with T2, human TLR7 (Homo sapiens, UniProt Q9NYK1).
T2 construct: host or cells: HEK-Blue cells (HEK293-derived reporter line)
T2 sequence (Q9NYK1 27-1049): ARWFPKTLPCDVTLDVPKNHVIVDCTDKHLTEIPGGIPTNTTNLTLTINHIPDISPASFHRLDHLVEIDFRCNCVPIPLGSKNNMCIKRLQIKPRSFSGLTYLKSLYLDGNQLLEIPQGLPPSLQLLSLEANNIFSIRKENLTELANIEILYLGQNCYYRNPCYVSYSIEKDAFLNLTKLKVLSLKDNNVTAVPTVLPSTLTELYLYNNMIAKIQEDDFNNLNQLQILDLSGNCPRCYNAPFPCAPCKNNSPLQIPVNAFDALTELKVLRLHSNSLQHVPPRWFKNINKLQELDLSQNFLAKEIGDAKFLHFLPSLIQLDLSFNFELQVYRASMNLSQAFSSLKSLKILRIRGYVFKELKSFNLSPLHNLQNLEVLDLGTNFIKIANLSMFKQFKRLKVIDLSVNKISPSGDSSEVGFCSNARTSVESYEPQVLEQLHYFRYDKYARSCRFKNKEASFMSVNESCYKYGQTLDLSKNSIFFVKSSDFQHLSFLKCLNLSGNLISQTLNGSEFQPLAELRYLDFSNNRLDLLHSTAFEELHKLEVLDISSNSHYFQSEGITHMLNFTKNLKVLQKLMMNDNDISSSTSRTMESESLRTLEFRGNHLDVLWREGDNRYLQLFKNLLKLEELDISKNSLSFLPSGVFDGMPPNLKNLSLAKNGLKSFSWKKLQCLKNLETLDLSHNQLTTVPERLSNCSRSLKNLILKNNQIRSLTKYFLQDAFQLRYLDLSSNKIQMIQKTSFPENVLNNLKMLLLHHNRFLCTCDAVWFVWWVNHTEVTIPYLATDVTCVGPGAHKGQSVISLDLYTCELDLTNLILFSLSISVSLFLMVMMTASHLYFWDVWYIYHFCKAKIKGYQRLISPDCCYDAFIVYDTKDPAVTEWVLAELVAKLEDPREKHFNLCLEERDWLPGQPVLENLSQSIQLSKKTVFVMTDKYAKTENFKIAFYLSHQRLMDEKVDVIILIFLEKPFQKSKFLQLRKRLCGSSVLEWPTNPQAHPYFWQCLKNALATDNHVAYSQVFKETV
In words: TLR7 inhibition reporter assay (HEK-Blue cells, secreted embryonic alkaline phosphatase reporter). The following applies: HEK-Blue cells overexpressing human TLR7, stimulated with gardiquimod 7.5 μM; read-out: TLR 7 IC50. An outline of the steps:
as §1

Assay [3] has as its target T3, human TLR8 (Homo sapiens, UniProt Q9NR97).
T3 construct: host or cells: HEK-Blue cells (HEK293-derived reporter line)
T3 sequence (Q9NR97 27-1041): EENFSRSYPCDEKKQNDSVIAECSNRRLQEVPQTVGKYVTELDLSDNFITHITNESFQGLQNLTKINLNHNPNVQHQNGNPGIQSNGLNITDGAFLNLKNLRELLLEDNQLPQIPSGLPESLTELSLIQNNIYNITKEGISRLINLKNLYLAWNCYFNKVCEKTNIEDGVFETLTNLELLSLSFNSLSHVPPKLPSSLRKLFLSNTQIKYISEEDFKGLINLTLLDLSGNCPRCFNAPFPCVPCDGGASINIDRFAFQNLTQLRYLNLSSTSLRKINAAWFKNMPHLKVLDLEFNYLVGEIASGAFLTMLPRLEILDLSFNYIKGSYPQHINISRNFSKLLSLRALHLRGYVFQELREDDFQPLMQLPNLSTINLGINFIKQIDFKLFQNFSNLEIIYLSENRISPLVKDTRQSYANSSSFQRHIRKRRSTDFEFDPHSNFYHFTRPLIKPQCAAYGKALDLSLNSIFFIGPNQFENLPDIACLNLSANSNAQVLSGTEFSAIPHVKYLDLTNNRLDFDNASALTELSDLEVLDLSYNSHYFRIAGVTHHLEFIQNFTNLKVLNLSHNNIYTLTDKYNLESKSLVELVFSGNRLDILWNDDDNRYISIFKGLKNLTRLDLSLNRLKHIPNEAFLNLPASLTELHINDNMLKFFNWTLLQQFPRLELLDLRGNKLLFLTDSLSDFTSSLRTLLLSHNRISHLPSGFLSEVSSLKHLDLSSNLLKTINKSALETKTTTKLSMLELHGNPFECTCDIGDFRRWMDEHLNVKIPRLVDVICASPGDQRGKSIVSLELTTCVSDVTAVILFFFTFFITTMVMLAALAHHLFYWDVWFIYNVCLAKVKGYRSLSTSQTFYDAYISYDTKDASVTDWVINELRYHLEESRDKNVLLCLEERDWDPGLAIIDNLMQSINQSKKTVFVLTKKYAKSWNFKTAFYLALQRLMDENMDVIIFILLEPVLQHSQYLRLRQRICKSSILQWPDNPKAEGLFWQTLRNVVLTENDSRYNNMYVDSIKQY
Nature of the assay: TLR8 inhibition reporter assay (HEK-Blue cells, secreted embryonic alkaline phosphatase reporter). The following applies: HEK-Blue cells overexpressing human TLR8, stimulated with R848 15.9 μM; read-out: TLR 8 IC50. The method in brief:
as §1

Setting [4] is: HEK-Blue cells overexpressing human TLR9, stimulated with ODN2006 5 nM, read-out: TLR 9 IC50.

Where two headings read alike, the source gives them in different places.

By IC50 is commonly meant the concentration at which inhibition is half-maximal. For `COCCN1C2CCC1CC(N1CCC(c3cc(C)c4nc(-c5ccc(OC)c(OC)c5)n(C)c4c3)CC1)C2` (single isomer, unassigned) [Example 168, 2-(3,4-dimethoxyphenyl)-6-(1-(8-(2-methoxyethyl)-8-azabicyclo[3.2.1]octan-3-yl)piperidin-4-yl)-1,4-dimethyl-1H-benzo[d]imidazole], the IC50 in assay [1] is 51 nM; in assay [1] (setting [4]), 51 nM; in assay [2], 14000 nM; in assay [3], above 25000 nM.

For the compound `COCCN1C2CCC1CC(N1CCC(c3cc(C)c4nc(-c5ccc(OC)c(OC)c5)n(C)c4c3)CC1)C2` (single isomer, unassigned) [Example 169, 2-(3,4-dimethoxyphenyl)-6-(1-(8-(2-methoxyethyl)-8-azabicyclo[3.2.1]octan-3-yl)piperidin-4-yl)-1,4-dimethyl-1H-benzo[d]imidazole], the IC50 in assay [1] came to 200 nM; in assay [1] (setting [4]), 204 nM; in assay [2] it was 10500 nM; in assay [3], 23700 nM.

Regarding `CC(C)CN1C2CCC1CC(N1CCC(c3ccc4c(nc(-c5ccc(S(C)(=O)=O)cc5)n4C)c3F)CC1)C2` (single isomer, unassigned) [Example 189, 4-fluoro-5-(1-(8-isobutyl-8-azabicyclo[3.2.1]octan-3-yl)piperidin-4-yl)-1-methyl-2-(4-(methylsulfonyl)phenyl)-1H-benzo[d]imidazole], the IC50 was 150 nM in assay [1], 154 nM in assay [1] (setting [4]), above 50000 nM in assay [2] and above 50000 nM in assay [3].

On to `CC(C)CN1C2CCC1CC(N1CCC(c3ccc4c(nc(-c5ccc(S(C)(=O)=O)cc5)n4C)c3F)CC1)C2` (single isomer, unassigned) [Example 190, 4-fluoro-5-(1-(8-isobutyl-8-azabicyclo[3.2.1]octan-3-yl)piperidin-4-yl)-1-methyl-2-(4-(methylsulfonyl)phenyl)-1H-benzo[d]imidazole], for which the half-inhibitory concentration (IC50) is 2600 nM in assay [1], 2630 nM in assay [1] (setting [4]), above 50000 nM in assay [2] and above 50000 nM in assay [3].

As to `Cn1c(-c2ccc(S(C)(=O)=O)cc2)nc2c(F)c(C3CCN(C4CC5CCC(C4)N5CC4CC4)CC3)ccc21` (single isomer, unassigned) [Example 191, 5-(1-(8-(cyclopropylmethyl)-8-azabicyclo[3.2.1]octan-3-yl)piperidin-4-yl)-4-fluoro-1-methyl-2-(4-(methylsulfonyl)phenyl)-1H-benzo[d]imidazole], the IC50 in assay [1] was 96 nM; in assay [1] (setting [4]), 96 nM; in assay [2], 3800 nM; in assay [3] it was above 50000 nM.

Consider `Cn1c(-c2ccc(S(C)(=O)=O)cc2)nc2c(F)c(C3CCN(C4CC5CCC(C4)N5CC4CC4)CC3)ccc21` (single isomer, unassigned) [Example 192, 5-(1-(8-(cyclopropylmethyl)-8-azabicyclo[3.2.1]octan-3-yl)piperidin-4-yl)-4-fluoro-1-methyl-2-(4-(methylsulfonyl)phenyl)-1H-benzo[d]imidazole], for which the half-inhibitory concentration (IC50) was 190 nM in assay [1], 186 nM in assay [1] (setting [4]), above 50000 nM in assay [2] and above 50000 nM in assay [3].

Take `Cn1c(-c2ccc(S(C)(=O)=O)cc2)nc2c(F)c(C3CCN(C4CC5CCC(C4)N5CC4COC4)CC3)ccc21` (single isomer, unassigned) [Example 193, 4-fluoro-1-methyl-2-(4-(methylsulfonyl)phenyl)-5-(1-(8-(oxetan-3-ylmethyl)-8-azabicyclo[3.2.1]octan-3-yl)piperidin-4-yl)-1H-benzo[d]imidazole]: the IC50 in assay [1] was 82 nM; in assay [1] (setting [4]) it was 82 nM; in assay [2], above 50000 nM; in assay [3] it was above 50000 nM.

Take `Cn1c(-c2ccc(S(C)(=O)=O)cc2)nc2c(F)c(C3CCN(C4CC5CCC(C4)N5CC4COC4)CC3)ccc21` (single isomer, unassigned) [Example 194, 4-fluoro-1-methyl-2-(4-(methylsulfonyl)phenyl)-5-(1-(8-(oxetan-3-ylmethyl)-8-azabicyclo[3.2.1]octan-3-yl)piperidin-4-yl)-1H-benzo[d]imidazole]: the concentration for half-maximal inhibition (IC50) was 630 nM in assay [1], 631 nM in assay [1] (setting [4]), 45600 nM in assay [2] and above 50000 nM in assay [3].

In the case of `COCCN1C2CCC1CC(N1CCC(c3ccc4c(nc(-c5ccc(S(C)(=O)=O)cc5)n4C)c3F)CC1)C2` (single isomer, unassigned) [Example 199, 4-fluoro-5-(1-(8-(2-methoxyethyl)-8-azabicyclo[3.2.1]octan-3-yl)piperidin-4-yl)-1-methyl-2-(4-(methylsulfonyl)phenyl)-1H-benzo[d]imidazole], the IC50 in assay [1] is 75 nM; in assay [1] (setting [4]), 75 nM; in assay [2], 25600 nM; in assay [3] it was above 50000 nM.
